The record followed here is ChEMBL document CHEMBL1126045, “Alanine series of ovine corticotropin releasing factor (oCRF): a structure-activity relationship study” (J Med Chem, 1992).

Test [1] concerns Pituitary gland cell. As to the kind of experiment: In vitro ability of the compound (peptide) to stimulate ACTH release by rat anterior pituitary cells in relative to Ovine corticotropin releasing factor (oCRF) in experiment 2. Type of test: cell-based. Also on record: unit not given here.
The subject of test [2] is Pituitary gland cell. The test can be described thus: In vitro ability of the compound (peptide) to stimulate ACTH release by rat anterior pituitary cells in relative to Ovine corticotropin releasing factor (oCRF) in experiment 1. Type of test: cell-based. On the set-up: unit not given here.

Consider `CC[C@H](C)[C@H](NC(=O)[C@H](CC(=O)O)NC(=O)[C@H](CC(C)C)NC(=O)[C@H](CC(C)C)NC(=O)[C@H](CCCCN)NC(=O)[C@H](CCCN=C(N)N)NC(=O)[C@H](CC(N)=O)NC(=O)[C@H](CO)NC(=O)[C@H](Cc1c[nH]cn1)NC(=O)[C@H](C)NC(=O)[C@H](CCC(N)=O)NC(=O)[C@H](CCC(N)=O)NC(=O)[C@H](C)NC(=O)[C@H](CC(C)C)NC(=O)[C@H](CCC(N)=O)NC(=O)[C@H](CC(=O)O)NC(=O)[C@H](C)NC(=O)[C@H](CCCCN)NC(=O)[C@@H](NC(=O)[C@H](CCSC)NC(=O)[C@H](CCC(=O)O)NC(=O)[C@H](CC(C)C)NC(=O)[C@@H](NC(=O)[C@H](CCC(=O)O)NC(=O)[C@H](CCCN=C(N)N)NC(=O)[C@H](CC(C)C)NC(=O)[C@H](CC(C)C)NC(=O)[C@H](Cc1c[nH]cn1)NC(=O)[C@H](Cc1ccccc1)NC(=O)[C@@H](NC(=O)[C@H](CC(C)C)NC(=O)[C@H](CC(=O)O)NC(=O)[C@H](C)NC(=O)[C@H](CO)NC(=O)[C@@H](NC(=O)[C@@H]1CCCN1C(=O)[C@@H]1CCCN1C(=O)[C@H](CCC(=O)O)NC(=O)[C@H](CCC(N)=O)NC(=O)[C@@H](N)CO)[C@@H](C)CC)[C@@H](C)O)C(C)C)[C@@H](C)O)C(=O)N[C@@H](C)C(N)=O`, for which the Relative potency with Pituitary gland cell [1] is 0.005; with Pituitary gland cell [2] it was 0.03.

Take `CC[C@H](C)[C@H](NC(=O)[C@H](CC(=O)O)NC(=O)[C@H](CC(C)C)NC(=O)[C@H](CC(C)C)NC(=O)[C@H](CCCCN)NC(=O)[C@H](CCCN=C(N)N)NC(=O)[C@H](CC(N)=O)NC(=O)[C@H](CO)NC(=O)[C@H](Cc1c[nH]cn1)NC(=O)[C@H](C)NC(=O)[C@H](CCC(N)=O)NC(=O)[C@H](CCC(N)=O)NC(=O)[C@H](C)NC(=O)[C@H](CC(C)C)NC(=O)[C@H](CCC(N)=O)NC(=O)[C@H](CC(=O)O)NC(=O)[C@H](C)NC(=O)[C@H](CCCCN)NC(=O)[C@@H](NC(=O)[C@H](CCSC)NC(=O)[C@H](CCC(=O)O)NC(=O)[C@H](CC(C)C)NC(=O)[C@@H](NC(=O)[C@H](CCC(=O)O)NC(=O)[C@H](CCCN=C(N)N)NC(=O)[C@H](CC(C)C)NC(=O)[C@H](CC(C)C)NC(=O)[C@H](Cc1c[nH]cn1)NC(=O)[C@H](Cc1ccccc1)NC(=O)[C@@H](NC(=O)[C@H](CC(C)C)NC(=O)[C@H](CC(=O)O)NC(=O)[C@H](CC(C)C)NC(=O)[C@H](C)NC(=O)[C@@H](NC(=O)[C@@H]1CCCN1C(=O)[C@@H]1CCCN1C(=O)[C@H](CCC(=O)O)NC(=O)[C@H](CCC(N)=O)NC(=O)[C@@H](N)CO)[C@@H](C)CC)[C@@H](C)O)C(C)C)[C@@H](C)O)C(=O)N[C@@H](C)C(N)=O`: the Relative potency with Pituitary gland cell [1] was determined as 0.21; in the test with Pituitary gland cell [2] it was 0.16.

With “H-SQEPPISLDLTFHALREVLEMTKADQLAQQAHSNRKLLDIA-NH2”, the Relative potency in the test with Pituitary gland cell [1] and in the test on Pituitary gland cell [2] was 0.001 each time.

Take “H-SQEPPISLDLTFHLLREVLAMTKADQLAQQAHSNRKLLDIA-NH2”: the values for the Relative potency with Pituitary gland cell [1] and with Pituitary gland cell [2] were 1.6 and 2.8, respectively.

Consider “H-SQEPPISLDLTFHLLREVLEMTKADQAAQQAHSNRKLLDIA-NH2”, for which the Relative potency with Pituitary gland cell [1] came out at 0.38; with Pituitary gland cell [2] it was 0.6.

For “H-SQEPPISLDLTFHLLREVLEMTKADQLAAQAHSNRKLLDIA-NH2”, the Relative potency with Pituitary gland cell [1] came out at 1.4; in the test with Pituitary gland cell [2] it was 1.

For “H-SQEPPISLDLTFHLLREVLEMTKADQLAQQAHSNRKLADIA-NH2”, the Relative potency worked out at 0.0002 with Pituitary gland cell [1] and 0.004 with Pituitary gland cell [2].
